Here are results for 10 molecules from ChEMBL document CHEMBL1201862, “PubChem BioAssay data set” (2004).

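Growth conditions: 96-well plates. Treatment: test compound, 48 hours, 5 concentrations. Analysis: linear interpolation between bracketing concentrations; unreached endpoints set to highest concentration. The concentration for 50% growth inhibition is given as GI50.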 Active and inactive are the calls of the source. Cut-off read from the data, not from the text of the source: active = GI50 up to about 1.1 µM and inactive = higher. Bounds are passed on as bounds.

Assay in all cases: NCI-60 cell line screen, 48 h
In assay [1] the test system is OVCAR-5.
The test system of assay [2] is HCT-15.
Assay [3] deals with Hs-578T.
In assay [4] the test system is TK-10.
The test system of assay [5] is NCI-H23.
Assay [6] concerns SK-OV-3.
The subject of assay [7] is DU-145.
Assay [8] concerns NCI/ADR-RES.
The subject of assay [9] is A498.
In assay [10] the test system is SK-MEL-5.
The test system of assay [11] is NCI-H226.
Assay [12] relates to CAKI-1.
The subject of assay [13] is M14.
The test system of assay [14] is ACHN.
For assay [15], the system named is U-251.
Assay [16] has as its system MOLT-4.
Assay [17] relates to NCI-H522.
For assay [18], the system named is MDA-MB-435.
For assay [19], the system named is MCF7.
Assay [20] relates to OVCAR-8.

Turning to `C=C1CC2(CC(c3ccccc3Cl)OC(c3ccccc3Cl)C2)OC1=O` (stereo not drawn), the GI50 in assay [1] was 8.73 µM (inactive); in assay [2], 2.56 µM; in [3], 1.88 µM (inactive); in [4] it was 4.33 µM (inactive); in [5] it was 3.83 µM (inactive); in assay [6], 6.87 µM (inactive). Besides, the GI50 in assay [7] is 6.87 µM (inactive); in assay [8] it was 3.57 µM (inactive); in assay [9] it was 9.73 µM (inactive); in [10] it was 4.3 µM (inactive); in assay [11] it was 8.69 µM (inactive); in assay [12] it was 2 µM (inactive). Besides, the GI50 is 1.71 µM (inactive) in assay [13]; 4.51 µM (inactive) in [14]; 8.07 µM (inactive) in assay [15]; 2.4 µM (inactive) in assay [16]; 1.72 µM (inactive) in [17]; 1.8 µM (inactive) in [18]. The GI50 in assay [19] and in assay [20] was 2.11 µM (inactive) throughout.
As for `COc1cccc2c1C(=O)c1ccc3cc(CO)cc(O)c3c1C2=O`, the GI50 in [1] is 2.09 µM (inactive); in [2] it was 0.321 µM; in assay [3], 3.7 µM (inactive); in assay [4], 3.01 µM (inactive); in [5] it was 0.288 µM (active); in assay [6], 2.33 µM (inactive). In addition, the GI50 was 0.733 µM (active) in [7]; 0.515 µM (active) in assay [8]; 3.52 µM (inactive) in assay [9]; 0.139 µM (active) in [10]; 0.908 µM (active) in assay [11]; 2.72 µM (inactive) in assay [12]. The GI50 in assay [13] was 0.245 µM (active); in assay [14] it was 0.509 µM (active); in assay [15], 1.45 µM (inactive); in assay [16], 0.405 µM (active); in assay [17], 0.865 µM (active); in assay [18], 0.201 µM (active). For the same molecule, the figures for the GI50 in [19] and in assay [20] were 0.41 µM (active) and 0.231 µM (active), respectively.
As to `COc1cc(C2SCC(=O)N2c2ccc(-n3c(-c4ccccc4)nc4ccccc4c3=O)cc2)ccc1O` (stereo not drawn), the GI50 in [1] is > 100 µM (inactive); in assay [2], 64.1 µM; in [3], 22.3 µM (inactive); in assay [4], > 100 µM (inactive); in [5], > 100 µM (inactive); in [6] it was 82 µM (inactive). The GI50 in assay [7] was > 100 µM (inactive); in assay [8], 34.3 µM (inactive); in [9] it was > 100 µM (inactive); in assay [10], 49.3 µM (inactive); in assay [11] it was 5.01 µM (inactive); in assay [12], > 100 µM (inactive). Moreover, the GI50 in assay [13] was > 100 µM (inactive); in assay [14], > 100 µM (inactive); in [15], 84.9 µM (inactive); in [16], 24.2 µM (inactive); in assay [17], 33 µM (inactive); in assay [18], > 100 µM (inactive). Moreover, the GI50 is 70 µM (inactive) in assay [19] and > 100 µM (inactive) in assay [20].
As for `COc1cc2c(/C=C3/C(=O)Nc4ccc(Cl)cc43)c(Cl)n(Cc3ccccc3)c2cc1C`, the GI50 was 2.51 µM (inactive) in assay [1]; 4.01 µM in [2]; 4.56 µM (inactive) in assay [3]; 1.8 µM (inactive) in assay [4]; 2.84 µM (inactive) in assay [5]; 1.74 µM (inactive) in assay [6]. In addition, the GI50 in [7] is 3.9 µM (inactive); in assay [8] it was 3.86 µM (inactive); in assay [9] it was 2.65 µM (inactive); in assay [10], 3.32 µM (inactive); in assay [11], 2.81 µM (inactive); in assay [12] it was 2.97 µM (inactive). Also, the GI50 in assay [13] is 4.19 µM (inactive); in assay [14], 2.41 µM (inactive); in assay [15], 2.3 µM (inactive); in assay [16] it was 2.26 µM (inactive); in [17], 3.18 µM (inactive); in assay [18], 2.43 µM (inactive). Moreover, the values for the GI50 in [19] and in assay [20] were 5 µM (inactive) and 2.59 µM (inactive), respectively.
Regarding `c1ccc2c(c1)nc1n2C2CCC(C2)N1` (stereo not drawn), the GI50 is > 10 µM (inactive) in assay [1]; above 10 µM in assay [2]; > 10 µM (inactive) in assay [3]; > 10 µM (inactive) in assay [4]; > 10 µM (inactive) in assay [5]; > 10 µM (inactive) in assay [6]. The GI50 in assay [7], in assay [8], in assay [9], in [10], in assay [11] and in [12] was > 10 µM (inactive) in each case. Moreover, the GI50 in assay [13], in assay [15], in [16], in [17], in assay [18] and in assay [19] was > 10 µM (inactive) in each case. Besides, in assay [20], the GI50 is > 10 µM (inactive).
On to `c1ccc2c(c1)CCN1CCc3ccccc3C1C2` (stereo not drawn), for which the GI50 in assay [1] is 38.4 µM (inactive); in [2] it was 40.2 µM; in assay [3], 68.5 µM (inactive); in assay [4], 59.6 µM (inactive); in assay [5] it was 59.7 µM (inactive); in [6] it was 64 µM (inactive). Besides, the GI50 is > 100 µM (inactive) in assay [7]; 65.9 µM (inactive) in assay [8]; > 100 µM (inactive) in [9]; 17.7 µM (inactive) in assay [10]; 23.6 µM (inactive) in assay [11]; 47.1 µM (inactive) in assay [12]. Also, the GI50 was 23.1 µM (inactive) in [13]; 77.6 µM (inactive) in [14]; 38.4 µM (inactive) in assay [15]; 40.4 µM (inactive) in [16]; 51.9 µM (inactive) in assay [17]; 33 µM (inactive) in [18]. In addition, the GI50 was > 100 µM (inactive) in [19] and 81.1 µM (inactive) in assay [20].
For `N=C1C=C(N)C(=O)c2[nH]c(=O)ccc21`, the GI50 in [1] is 2.5 µM (inactive); in [2], 2.06 µM; in [3], 4.42 µM (inactive); in [4], 12.4 µM (inactive); in [5], 2.23 µM (inactive); in assay [6] it was 13.8 µM (inactive). In addition, the GI50 is 8.13 µM (inactive) in assay [7]; 2.27 µM (inactive) in assay [8]; 2.95 µM (inactive) in assay [9]; 1.8 µM (inactive) in [10]; 2.53 µM (inactive) in assay [11]; 5.16 µM (inactive) in assay [12]. The GI50 was 14.8 µM (inactive) in [13]; 1.73 µM (inactive) in assay [14]; 2.04 µM (inactive) in assay [15]; 3.5 µM (inactive) in assay [16]; 1.56 µM (inactive) in assay [17]; 1.09 µM (active) in [18]. In assay [19], the GI50 was 0.351 µM (active).
`O=C(NO)NCCCl`: the GI50 in assay [1] was > 100 µM (inactive); in assay [2] it was above 100 µM; in assay [3], > 100 µM (inactive); in assay [4], > 100 µM (inactive); in assay [5], > 100 µM (inactive); in assay [6] it was > 100 µM (inactive). For the same molecule, the GI50 in [7] is > 100 µM (inactive); in assay [8], > 100 µM (inactive); in assay [9] it was 49.5 µM (inactive); in [10], > 100 µM (inactive); in assay [11], > 100 µM (inactive); in assay [12], > 100 µM (inactive). For the same molecule, the GI50 in [13], in assay [14], in assay [15], in assay [16], in assay [17] and in assay [18] was > 100 µM (inactive) in each case. The GI50 in assay [19] and in [20] was > 100 µM (inactive) throughout.
For the molecule `CCOC(=O)C(C(=O)OCC)C1C=CCC2c3ccccc3COCC21` (stereo not drawn), the GI50 in [1] was > 100 µM (inactive); in assay [2], 40 µM; in assay [3], 73.8 µM (inactive); in assay [4], 98.2 µM (inactive); in assay [5] it was 43.6 µM (inactive); in assay [6] it was 85.5 µM (inactive). In addition, the GI50 in assay [7] was > 100 µM (inactive); in [8], 28.2 µM (inactive); in assay [9], 38.7 µM (inactive); in assay [10], 19.1 µM (inactive); in [11] it was 73.8 µM (inactive); in assay [12], 26.5 µM (inactive). Also, the GI50 in assay [13] is 49.9 µM (inactive); in [14], 40.2 µM (inactive); in [15] it was 57.9 µM (inactive); in assay [16], 40.9 µM (inactive); in assay [17], 24.5 µM (inactive); in assay [18] it was 36.9 µM (inactive). The GI50 was 31.8 µM (inactive) in assay [19] and 44.2 µM (inactive) in [20].
Turning to `CCSc1nnc(Sc2c3ccccc3nc3ccccc23)s1`, the GI50 is 20 µM (inactive) in [1]; 3.37 µM in assay [2]; 32.7 µM (inactive) in assay [3]; 6.18 µM (inactive) in assay [4]; 20.2 µM (inactive) in [5]; > 78 µM (inactive) in assay [6]. Also, the GI50 in assay [7] was 15.2 µM (inactive); in assay [8], 19.7 µM (inactive); in [9], 23.8 µM (inactive); in assay [10], 15.6 µM (inactive); in assay [11] it was 33.7 µM (inactive); in assay [12], 5.33 µM (inactive). Also, the GI50 was 11.5 µM (inactive) in [13]; 5.19 µM (inactive) in assay [14]; 23.3 µM (inactive) in [15]; 2.63 µM (inactive) in assay [16]; 2.37 µM (inactive) in [17]; 9.84 µM (inactive) in assay [18]. In addition, the figures for the GI50 in assay [19] and in assay [20] were 3.92 µM (inactive) and 20.3 µM (inactive), respectively.
